The source of these data is ChEMBL document CHEMBL3039007, “Structure-based identification of OATP1B1/3 inhibitors” (Mol Pharmacol, 2013).

The target of series [1] is T1, Solute carrier organic anion transporter family member 1B3 (Homo sapiens, UniProt Q9NPD5).
T1 sequence (Q9NPD5 whole entry): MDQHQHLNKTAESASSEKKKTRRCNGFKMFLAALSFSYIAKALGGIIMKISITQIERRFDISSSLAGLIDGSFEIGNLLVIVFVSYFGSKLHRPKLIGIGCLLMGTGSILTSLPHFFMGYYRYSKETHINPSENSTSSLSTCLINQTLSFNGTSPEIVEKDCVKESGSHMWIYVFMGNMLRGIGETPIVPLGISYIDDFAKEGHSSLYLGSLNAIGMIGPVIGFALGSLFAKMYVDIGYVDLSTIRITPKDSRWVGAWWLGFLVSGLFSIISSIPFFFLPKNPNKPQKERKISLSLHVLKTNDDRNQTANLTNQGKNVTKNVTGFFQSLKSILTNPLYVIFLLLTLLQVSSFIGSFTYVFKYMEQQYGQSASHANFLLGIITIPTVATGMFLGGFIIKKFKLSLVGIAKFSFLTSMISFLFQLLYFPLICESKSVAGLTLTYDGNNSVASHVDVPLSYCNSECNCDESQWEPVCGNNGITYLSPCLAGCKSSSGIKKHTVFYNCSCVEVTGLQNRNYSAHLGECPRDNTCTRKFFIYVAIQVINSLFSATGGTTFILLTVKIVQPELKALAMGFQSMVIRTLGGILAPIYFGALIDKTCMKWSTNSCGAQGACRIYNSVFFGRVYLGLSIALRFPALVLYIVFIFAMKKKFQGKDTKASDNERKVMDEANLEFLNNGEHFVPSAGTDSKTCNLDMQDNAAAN
As to conditions: chinese hamster, cho, 10 µM.

In series [2] the target is T2, Solute carrier organic anion transporter family member 1B1 (Homo sapiens, UniProt Q9Y6L6).
T2 sequence (Q9Y6L6 whole entry): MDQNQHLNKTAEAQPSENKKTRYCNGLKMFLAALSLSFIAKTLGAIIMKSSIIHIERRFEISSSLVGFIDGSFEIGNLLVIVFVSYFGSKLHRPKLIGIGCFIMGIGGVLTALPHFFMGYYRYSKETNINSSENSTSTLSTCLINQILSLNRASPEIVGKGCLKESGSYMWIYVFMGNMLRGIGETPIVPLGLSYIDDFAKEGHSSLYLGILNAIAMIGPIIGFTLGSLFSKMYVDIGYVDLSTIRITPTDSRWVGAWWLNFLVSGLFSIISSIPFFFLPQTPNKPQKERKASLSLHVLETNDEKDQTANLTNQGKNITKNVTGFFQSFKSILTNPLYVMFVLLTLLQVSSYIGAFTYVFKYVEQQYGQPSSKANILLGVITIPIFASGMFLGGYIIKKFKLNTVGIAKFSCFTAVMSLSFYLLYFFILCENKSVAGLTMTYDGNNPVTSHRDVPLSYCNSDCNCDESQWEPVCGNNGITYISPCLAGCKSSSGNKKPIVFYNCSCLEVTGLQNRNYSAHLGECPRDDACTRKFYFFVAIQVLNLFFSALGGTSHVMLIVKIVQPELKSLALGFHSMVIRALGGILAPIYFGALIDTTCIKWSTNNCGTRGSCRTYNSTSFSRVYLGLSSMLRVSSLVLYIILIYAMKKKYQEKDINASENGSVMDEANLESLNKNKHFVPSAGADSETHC
As to conditions: chinese hamster, cho, 10 µM.

The term residual activity denotes the signal under treatment as a percentage of the control signal. For `Cl.NCc1ccc(S(N)(=O)=O)cc1` [MAFENIDE HYDROCHLORIDE], the residual activity is reported as 85.4% in series [1] and 81.65% in series [2].
For `COc1cc2c(cc1O)[C@@H](Cc1ccc(O)cc1)[N+](C)(C)CC2.[I-]` [MAGNOCURARINE IODIDE] the same measures were 96.29% and 91.83%.
For `Cc1occc(=O)c1O` [MALTOL] the same measures were 74.61% and 79.28%.
For `COC(=O)C(O)c1ccccc1` (configuration not stated) [MANDELIC ACID, METHYL ESTER] the same measures were 76.32% and 97.92%.
In the case of `COc1c(O)cc2oc3cc(O)c(CC=C(C)C)c(O)c3c(=O)c2c1CC=C(C)C` [MANGOSTIN], the residual activity in series [1] was found to be 110.4%; in series [2] it was 150.2%.
On to `CC(=O)OC(C)(C)[C@@H]1Cc2cc3ccc(=O)oc3cc2O1` [MARMESIN ACETATE], for which the residual activity in series [1] amounted to 88.18%; in series [2] it was 70.52%.
With `CC(C)(O)[C@@H]1Cc2cc3ccc(=O)oc3cc2O1` [MARMESIN], the residual activity in series [1] is 103.9%; in series [2] it was 89.64%.
For `COC(=O)Nc1nc2ccc(C(=O)c3ccccc3)cc2[nH]1` [MEBENDAZOLE] the same measures were 99% and 159.5%.
For `CCN(CCCCOC(=O)c1ccc(OC)c(OC)c1)C(C)Cc1ccc(OC)cc1.Cl` (configuration not stated) [MEBEVERINE HYDROCHLORIDE] the same measures were 112% and 89.99%.
For `CNC1(C)C2CCC(C2)C1(C)C.Cl` (configuration not stated) [MECAMYLAMINE HYDROCHLORIDE] the same measures were 106.8% and 93.56%.
As for `C=C1c2c(Cl)ccc(O)c2C(=O)C2=C(O)[C@]3(O)C(=O)C(C(N)=O)=C(O)[C@@H](N(C)C)[C@@H]3[C@@H](O)[C@H]12.O=C(O)c1cc(S(=O)(=O)O)ccc1O` [MECLOCYCLINE SULFOSALICYLATE], the results for the residual activity in series [1] and in series [2] were 107.8% and 122.1%, respectively.
For the compound `Cc1ccc(Cl)c(Nc2ccccc2C(=O)[O-])c1Cl.O.[Na+]` [MECLOFENAMATE SODIUM], the residual activity was 87.03% in series [1] and 77.28% in series [2].
As for `COC(=O)C(N)CS.Cl` (configuration not stated) [MECYSTEINE HYDROCHLORIDE], the values for the residual activity in series [1] and in series [2] were 99.55% and 97.76%, respectively.
For `CC(=O)O[C@]1(C(C)=O)CC[C@H]2[C@@H]3C[C@H](C)C4=CC(=O)CC[C@]4(C)[C@H]3CC[C@@]21C` [MEDROXYPROGESTERONE ACETATE] the same measures were 104.4% and 105.9%.
As for `CC(=O)[C@H]1CC[C@H]2[C@@H]3C[C@H](C)C4=CC(=O)CC[C@]4(C)[C@H]3[C@@H](O)C[C@]12C` [MEDRYSONE], the residual activity in series [1] was determined as 90.89%; in series [2], 86.36%.
For `Cc1cccc(Nc2ccccc2C(=O)O)c1C` [MEFENAMIC ACID] the same measures were 72.63% and 63.23%.
For the compound `OC(c1cc(C(F)(F)F)nc2c(C(F)(F)F)cccc12)C1CCCCN1` (configuration not stated) [MEFLOQUINE], the residual activity is on record as 112.7% in series [1] and 161.6% in series [2].
For `CC(=O)O[C@]1(C(C)=O)CC[C@H]2[C@@H]3C=C(C)C4=CC(=O)CC[C@]4(C)[C@H]3CC[C@@]21C` [MEGESTROL ACETATE] the same measures were 93.03% and 50.69%.
As to `COc1ccc2[nH]cc(CCNC(C)=O)c2c1` [MELATONIN], the residual activity in series [1] was determined as 91.63%; in series [2] it was 71.02%.
For `OC[C@H]1O[C@@](CO)(O[C@H]2O[C@H](CO)[C@@H](O)[C@H](O)[C@H]2O)[C@@H](O[C@H]2O[C@H](CO)[C@@H](O)[C@H](O)[C@H]2O)[C@@H]1O` [MELEZITOSE] the same measures were 96.54% and 99.1%.
For `CC12CC3CC(C)(C1)CC(N)(C3)C2.Cl` [MEMANTINE HYDROCHLORIDE] the same measures were 88.95% and 88.64%.
Turning to `CC1=CC(=O)c2ccccc2C1=O` [MENADIONE], the residual activity in series [1] is 112.1%; in series [2] it was 157.5%.
For `CC(C)[C@@H]1CC[C@@H](C)CC1=O` [MENTHONE] the same measures were 100.2% and 96.98%.
For `CC(C)[C@@H]1CC[C@@H](C)C[C@H]1OC(=O)c1ccccc1` [MENTHYL BENZOATE] the same measures were 101.1% and 100.9%.
Regarding `CNc1ccc(C(=O)CC(O)CCC(C)C2OC(=O)CC(O)CC(=O)CC(O)CC(O)CC(O)CC(O)CC3(O)CC(O)C(C(=O)OC)C(CC(O[C@@H]4O[C@H](C)[C@@H](O)[C@H](N)[C@@H]4O)/C=C/C=C/C=C/C=C/C=C/C=C/C=C/C2C)O3)cc1.COC(=O)C1C(O)CC2(O)CC(O)CC(O)CC(O)CC(O)CC(=O)CC(O)CC(=O)OC(C(C)CCC(O)CC(=O)c3ccc(N)cc3)C(C)/C=C/C=C/C=C/C=C/C=C/C=C/C=C/C(O[C@@H]3O[C@H](C)[C@@H](O)[C@H](N)[C@@H]3O)CC1O2` (some centres not stated) [MEPARTRICIN], the residual activity in series [1] came out at 86.4%; in series [2], 95.55%.
For `C[N+]1(C)CCCC(OC(=O)C(O)(c2ccccc2)c2ccccc2)C1.[Br-]` (configuration not stated) [MEPENZOLATE BROMIDE] the same measures were 106.1% and 121.8%.
For `Cc1ccccc1OCC(O)CO` (configuration not stated) [MEPHENESIN], the results for the residual activity in series [1] and in series [2] were 107.5% and 101%, respectively.
Turning to `Cc1cccc(C)c1NC(=O)C1CCCCN1C.Cl` (configuration not stated) [MEPIVACAINE HYDROCHLORIDE], the residual activity in series [1] is recorded as 96.16%; in series [2], 96.31%.
Regarding `Sc1ncnc2nc[nH]c12` [MERCAPTOPURINE ANHYDROUS], the residual activity in series [1] was 105.3%; in series [2] it was 107.8%.
For `CC1=C2C(O)C(=O)OC3CC4C(C)(C)C(=O)C=C[C@]4(C)C(CC1)[C@]23C` (some centres not stated) [MEROGEDUNIN] the same measures were 83.06% and 106.3%.
For `O=S(=O)([O-])CCS.[Na+]` [MESNA] the same measures were 97.81% and 95.36%.
With `CC(=O)Nc1cccc(O)c1` [METACETAMOL], the residual activity in series [1] is on record as 79.17%; in series [2] it was 66.39%.
As for `COc1cc2c(cc1OC)C(=O)OC2` [METAMECONINE], the residual activity in series [1] was determined as 95.41%; in series [2] it was 92.42%.
For `CC(C)NCC(O)c1cc(O)cc(O)c1` (configuration not stated) [METAPROTERENOL] the same measures were 111.7% and 108.3%.
Take `Cc1cc(C)cc(OCC2CNC(=O)O2)c1` (configuration not stated) [METAXALONE]: the values for the residual activity in series [1] and in series [2] were 93.18% and 88.21%, respectively.
For `CC(=O)OC(C)C[N+](C)(C)C.[Cl-]` (configuration not stated) [METHACHOLINE CHLORIDE] the same measures were 106.9% and 86.62%.
For `C=C1c2cccc(O)c2C(=O)C2=C(O)[C@]3(O)C(=O)C(C(N)=O)=C(O)[C@@H](N(C)C)[C@@H]3[C@@H](O)[C@H]12.Cl` [METHACYCLINE HYDROCHLORIDE] the same measures were 110.7% and 110.8%.
For `COP(N)(=O)SC` (configuration not stated) [METHAMIDOPHOS] the same measures were 106% and 96.41%.
`COS(C)(=O)=O` [METHANESULFONIC ACID METHYL ESTER]: the results for the residual activity in series [1] and in series [2] were 79.48% and 57.02%, respectively.
For `CN(C)CCN(Cc1cccs1)c1ccccn1.Cl` [METHAPYRILENE HYDROCHLORIDE] the same measures were 82.96% and 83.03%.
For `CC(=O)/N=c1/sc(S(N)(=O)=O)nn1C` [METHAZOLAMIDE] the same measures were 93.09% and 101.3%.
